The source of these data is patent US20260232749A1, “Plant-Based Compositions And Methods For Modulation of Inflammatory Response Post Viral Infection” (VDF Futureceuticals, Inc., priority 2023, published 2026).

For one experiment, the target named is iNOS (Homo sapiens, UniProt P35228). Put plainly: eCMA-iNOS: iNOS-dependent ROS generation in capillary blood (ESR) after single oral dose. It is filed as in vivo. To be noted: over three hours after single oral dose (50 mg blend or 1,000 mg vitamin C); FIG. 2.
For a further experiment, the target named is T1, NOX2 (Homo sapiens, UniProt P04839).
T1 sequence (P04839 2-570 limits assumed): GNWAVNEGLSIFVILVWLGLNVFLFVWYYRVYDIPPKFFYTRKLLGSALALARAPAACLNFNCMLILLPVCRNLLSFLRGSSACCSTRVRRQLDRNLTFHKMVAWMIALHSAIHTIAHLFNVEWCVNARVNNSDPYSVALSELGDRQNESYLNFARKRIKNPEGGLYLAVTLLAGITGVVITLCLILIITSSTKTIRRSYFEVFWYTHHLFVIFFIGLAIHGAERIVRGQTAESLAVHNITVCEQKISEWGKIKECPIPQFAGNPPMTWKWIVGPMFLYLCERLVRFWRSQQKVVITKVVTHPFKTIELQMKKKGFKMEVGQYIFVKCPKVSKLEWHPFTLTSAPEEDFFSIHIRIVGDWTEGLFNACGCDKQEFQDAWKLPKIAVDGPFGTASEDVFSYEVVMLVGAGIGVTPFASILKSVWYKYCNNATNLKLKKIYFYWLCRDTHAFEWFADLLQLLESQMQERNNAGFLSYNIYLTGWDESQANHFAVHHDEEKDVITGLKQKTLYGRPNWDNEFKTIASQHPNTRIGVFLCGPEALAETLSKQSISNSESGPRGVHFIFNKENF
T1 sequence (P13498 2-195 partner limits assumed): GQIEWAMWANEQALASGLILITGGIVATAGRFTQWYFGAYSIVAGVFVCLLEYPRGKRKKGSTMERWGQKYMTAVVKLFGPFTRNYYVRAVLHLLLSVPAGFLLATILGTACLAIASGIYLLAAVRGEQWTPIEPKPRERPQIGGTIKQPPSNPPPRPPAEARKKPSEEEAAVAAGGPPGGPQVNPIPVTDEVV
As to the kind of experiment: eCMA-PHAGO-NOX2: NOX2-dependent ROS generation in capillary blood (ESR) after single oral dose. It is filed as in vivo. The note with it: single oral dose (50 mg blend or 1,000 mg vitamin C); subjects 18-24 days after moderate COVID-19; 30-180 min after administration.

In experiment [1] the test system is TNF-α induced H2O2 formation. As to the kind of experiment: inflammatory resistance assay: ex vivo TNF-α induced extracellular H2O2 generation by blood cells. It is filed as in vivo, human. The note with it: single oral dose 50 mg blend or 1,000 mg vitamin C.

Molecules are shown by their SMILES. “Also recorded” adds a separate entry of the source.

In the case of `O=C1O[C@H]([C@@H](O)CO)C(O)=C1O` [vitamin C], the “change in iNOS dependent cellular metabolic activity, in words” value at iNOS is listed as “no notable effect”. Further, the “inhibition of NOX2-dependent ROS generation” value at NOX2 was 45%. In experiment [1] (TNF-α 40 ng/ml (comparable to acute viral infection), FIG. 5A), the “suppression of extracellular H2O2 induced by TNF-α, in words” value is reported as “similarly suppress”. For the same compound, the “reduction of high dose TNFα-induced H2O2 formation, in words” value in experiment [1] (TNFα 200 ng/ml ("Cytokine Storm"), FIG. 5B) is reported as “equal potential to reduce; also recorded: similar”.
